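All cell lines were grown in 96-well plates and treated with compound for 48 hours. Here, GI50 denotes the concentration required for 50% inhibition of growth.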 The source made the active and inactive calls. No stated cut-off is given here; in the data, active = GI50 up to about 1.1 µM and inactive = higher.
How the values were obtained:
Assay in all cases: NCI anticancer screen, dose series, 48 h
OVCAR-5 = tested on: OVCAR-5
KM12 = tested on: KM12
IGROV-1 = tested on: IGROV-1
OVCAR-8 = tested on: OVCAR-8
MDA-MB-435 = tested on: MDA-MB-435
SK-MEL-28 = tested on: SK-MEL-28
RXF 393 = tested on: RXF 393
TK-10 = tested on: TK-10
MDA-N = tested on: MDA-N
Malme-3M = tested on: Malme-3M
SR = tested on: SR
SW-620 = tested on: SW-620
U-251 = tested on: U-251
MOLT-4 = tested on: MOLT-4
SK-MEL-2 = tested on: SK-MEL-2
CAKI-1 = tested on: CAKI-1
NCI-H23 = tested on: NCI-H23
HCT-116 = tested on: HCT-116
HOP-62 = tested on: HOP-62
SK-OV-3 = tested on: SK-OV-3

| Compound | GI50 (OVCAR-5) | GI50 (KM12) | GI50 (IGROV-1) | GI50 (OVCAR-8) | GI50 (MDA-MB-435) | GI50 (SK-MEL-28) | GI50 (RXF 393) | GI50 (TK-10) | GI50 (MDA-N) | GI50 (Malme-3M) | GI50 (SR) | GI50 (SW-620) | GI50 (U-251) | GI50 (MOLT-4) | GI50 (SK-MEL-2) | GI50 (CAKI-1) | GI50 (NCI-H23) | GI50 (HCT-116) | GI50 (HOP-62) | GI50 (SK-OV-3) |
| --- | --- | --- | --- | --- | --- | --- | --- | --- | --- | --- | --- | --- | --- | --- | --- | --- | --- | --- | --- | --- |
| CCCCCNC(=O)OC1CCn2c1nc1c2C(=O)C(C)=C(N2CC2)C1=O (centres undefined) | 3.05 µM (inactive) | 1.64 µM (inactive) | 1.37 µM (inactive) | 1.46 µM (inactive) | 1.62 µM (inactive) | 1.41 µM (inactive) | 0.543 µM (active) | 4.83 µM (inactive) | 1.5 µM (inactive) | 2.19 µM (inactive) | 20.7 µM (inactive) | 0.492 µM (active) | 1.67 µM (inactive) | 10.7 µM (inactive) | 1.63 µM (inactive) | 1.2 µM (inactive) | 1.24 µM (inactive) | 1.24 µM (inactive) | – | – |
| CC1=N[C@@](C)(C2CC3C=CC2C3=O)COC1=O (some centres undefined) | > 100 µM (inactive) | > 100 µM (inactive) | > 100 µM (inactive) | > 100 µM (inactive) | > 100 µM (inactive) | > 100 µM (inactive) | > 100 µM (inactive) | > 100 µM (inactive) | > 100 µM (inactive) | > 100 µM (inactive) | > 100 µM (inactive) | > 100 µM (inactive) | > 100 µM (inactive) | > 100 µM (inactive) | – | > 100 µM (inactive) | > 100 µM (inactive) | > 100 µM (inactive) | > 100 µM (inactive) | > 100 µM (inactive) |
| Nc1nc(Cl)nc2c1ncn2C1CCC(COP(=O)(O)OP(=O)(O)OP(=O)(O)O)O1 (centres undefined) | 22.8 µM (inactive) | 32.4 µM (inactive) | 30.5 µM (inactive) | 21.4 µM (inactive) | 23 µM (inactive) | 20.4 µM (inactive) | 24.5 µM (inactive) | 25.1 µM (inactive) | 38 µM (inactive) | > 100 µM (inactive) | 23.1 µM (inactive) | 32.4 µM (inactive) | 37.5 µM (inactive) | 65 µM (inactive) | – | 6.89 µM (inactive) | 19.9 µM (inactive) | 35.2 µM (inactive) | 19.2 µM (inactive) | 57.3 µM (inactive) |
| O=c1[nH]c(=O)n(CCOc2ccccc2)cc1Nc1ccccc1 | > 100 µM (inactive) | > 100 µM (inactive) | > 100 µM (inactive) | – | > 100 µM (inactive) | > 100 µM (inactive) | 37.3 µM (inactive) | – | > 100 µM (inactive) | > 100 µM (inactive) | > 100 µM (inactive) | > 100 µM (inactive) | > 100 µM (inactive) | > 100 µM (inactive) | – | > 100 µM (inactive) | > 100 µM (inactive) | > 100 µM (inactive) | 22.3 µM (inactive) | – |
| COc1cc(-c2cc(=O)c3cc4c(cc3[nH]2)OCO4)cc(OC)c1O | > 10 µM (inactive) | > 10 µM (inactive) | > 10 µM (inactive) | > 10 µM (inactive) | > 10 µM (inactive) | > 10 µM (inactive) | > 10 µM (inactive) | > 10 µM (inactive) | > 10 µM (inactive) | – | > 10 µM (inactive) | > 10 µM (inactive) | > 10 µM (inactive) | > 10 µM (inactive) | > 10 µM (inactive) | > 10 µM (inactive) | > 10 µM (inactive) | > 10 µM (inactive) | > 10 µM (inactive) | > 10 µM (inactive) |
| COc1ccc(Nc2nnc(CCCCCCCCc3nnc(Nc4ccc(OC)cc4)o3)o2)cc1 | > 100 µM (inactive) | > 100 µM (inactive) | > 100 µM (inactive) | > 100 µM (inactive) | > 100 µM (inactive) | > 100 µM (inactive) | > 100 µM (inactive) | > 100 µM (inactive) | > 100 µM (inactive) | > 100 µM (inactive) | – | > 100 µM (inactive) | > 100 µM (inactive) | > 100 µM (inactive) | > 100 µM (inactive) | > 100 µM (inactive) | > 100 µM (inactive) | > 100 µM (inactive) | > 100 µM (inactive) | > 100 µM (inactive) |
| COc1ccc(Nc2nc3ccc(C(F)(F)F)cc3nc2C(=O)O)cc1 | 28.2 µM (inactive) | 23.5 µM (inactive) | 17.1 µM (inactive) | 30.8 µM (inactive) | 34.3 µM (inactive) | 30.6 µM (inactive) | 22.9 µM (inactive) | 30.3 µM (inactive) | 42.2 µM (inactive) | 36.6 µM (inactive) | – | 38.4 µM (inactive) | 32.1 µM (inactive) | 29.5 µM (inactive) | 43.9 µM (inactive) | 46.8 µM (inactive) | 20.6 µM (inactive) | 34.7 µM (inactive) | 35.5 µM (inactive) | 20.4 µM (inactive) |
| COC(CC1(CCNc2ccccc2)C(=O)N(COCC[Si](C)(C)C)c2ccccc21)OC (centres undefined) | 16.6 µM (inactive) | 8.85 µM (inactive) | 9.66 µM (inactive) | 18.4 µM (inactive) | 13.3 µM (inactive) | 6.98 µM (inactive) | 12.5 µM (inactive) | 14.8 µM (inactive) | 24 µM (inactive) | – | > 32.8 µM (inactive) | 18.9 µM (inactive) | 18.2 µM (inactive) | > 43.7 µM (inactive) | 15.3 µM (inactive) | 26.4 µM (inactive) | 16.5 µM (inactive) | 13.9 µM (inactive) | 13.7 µM (inactive) | 15.2 µM (inactive) |
| Cc1cnc2sn(-c3ccc(Oc4ccccc4)cc3)c(=O)c2c1 | 18.4 µM (inactive) | 13.4 µM (inactive) | 14.7 µM (inactive) | 28.8 µM (inactive) | 13.3 µM (inactive) | 10.3 µM (inactive) | – | 17.7 µM (inactive) | 16.6 µM (inactive) | 1.7 µM (inactive) | 7.06 µM (inactive) | 21.2 µM (inactive) | 17 µM (inactive) | 8.67 µM (inactive) | 28.3 µM (inactive) | – | 25.4 µM (inactive) | 14 µM (inactive) | 12.9 µM (inactive) | 25.8 µM (inactive) |
| N#Cc1ccc(/N=N/N2CCCC2)cc1 | > 100 µM (inactive) | > 100 µM (inactive) | > 100 µM (inactive) | > 100 µM (inactive) | > 100 µM (inactive) | – | > 100 µM (inactive) | 95.9 µM (inactive) | > 100 µM (inactive) | – | 15.2 µM (inactive) | > 100 µM (inactive) | > 100 µM (inactive) | 61.2 µM (inactive) | > 100 µM (inactive) | > 100 µM (inactive) | 95.1 µM (inactive) | > 100 µM (inactive) | > 100 µM (inactive) | > 100 µM (inactive) |
| O=[N+]([O-])c1cc2no[n+]([O-])c2cc1N1CCCCC1 | 8.39 µM (inactive) | 13.4 µM (inactive) | 3.21 µM (inactive) | 1.95 µM (inactive) | 2.87 µM (inactive) | 7.28 µM (inactive) | 1.51 µM (inactive) | 3.33 µM (inactive) | 2.59 µM (inactive) | – | 2.94 µM (inactive) | 1.97 µM (inactive) | 3.93 µM (inactive) | 1.06 µM (active) | 7.05 µM (inactive) | 3.35 µM (inactive) | 12.5 µM (inactive) | 1.93 µM (inactive) | 4.34 µM (inactive) | 14 µM (inactive) |
| CC(=O)OCC1OC(OC2CC3C(C)(C)C(O)CC[C@]3(C)C3CCC45CC4(CCC5[C@@H](C)CC(O)C(O)C(C)(C)O)[C@]23C)C(O)C(O)C1O (some centres undefined) | > 10 µM (inactive) | > 10 µM (inactive) | > 10 µM (inactive) | > 10 µM (inactive) | > 10 µM (inactive) | > 10 µM (inactive) | > 10 µM (inactive) | > 10 µM (inactive) | > 10 µM (inactive) | > 10 µM (inactive) | – | > 10 µM (inactive) | > 10 µM (inactive) | > 10 µM (inactive) | > 10 µM (inactive) | > 10 µM (inactive) | > 10 µM (inactive) | > 10 µM (inactive) | > 10 µM (inactive) | > 10 µM (inactive) |
| O=C1N/C(=N/N=C/C(O)C(O)C(O)C(O)CO)N/C1=C\c1ccco1 (centres undefined) | > 100 µM (inactive) | > 100 µM (inactive) | > 100 µM (inactive) | > 100 µM (inactive) | > 100 µM (inactive) | > 100 µM (inactive) | > 100 µM (inactive) | > 100 µM (inactive) | > 100 µM (inactive) | > 100 µM (inactive) | – | > 100 µM (inactive) | 89.7 µM (inactive) | > 100 µM (inactive) | 93.8 µM (inactive) | > 100 µM (inactive) | > 100 µM (inactive) | > 100 µM (inactive) | > 100 µM (inactive) | > 100 µM (inactive) |
| Nc1ccccc1/N=N/c1c(S(=O)(=O)O)cc2cc(S(=O)(=O)O)cc(O)c2c1O | > 100 µM (inactive) | > 100 µM (inactive) | > 100 µM (inactive) | > 100 µM (inactive) | > 100 µM (inactive) | > 100 µM (inactive) | > 100 µM (inactive) | > 100 µM (inactive) | 32.4 µM (inactive) | > 100 µM (inactive) | > 100 µM (inactive) | > 100 µM (inactive) | > 100 µM (inactive) | > 100 µM (inactive) | – | > 100 µM (inactive) | > 100 µM (inactive) | 26.2 µM (inactive) | > 100 µM (inactive) | > 100 µM (inactive) |
| Cc1c(C)c(C)n(C2OC(CO)C(O)C(O)C2O)c(=S)c1C#N (centres undefined) | > 100 µM (inactive) | > 100 µM (inactive) | > 100 µM (inactive) | > 100 µM (inactive) | > 100 µM (inactive) | > 100 µM (inactive) | > 100 µM (inactive) | > 100 µM (inactive) | > 100 µM (inactive) | > 100 µM (inactive) | > 100 µM (inactive) | > 100 µM (inactive) | > 100 µM (inactive) | > 100 µM (inactive) | > 100 µM (inactive) | – | > 100 µM (inactive) | > 100 µM (inactive) | > 100 µM (inactive) | > 100 µM (inactive) |

Reference: ChEMBL document CHEMBL1201862, “PubChem BioAssay data set” (2004)
